{
  "source": "paper PMC6981144",
  "about": "(Nature Communications, 2020)",
  "key": {"GLP1R [1]": {"tested_on": "GLP1R", "test": "Insulin secretion in isolated Glp1r+/+ and Glp1r(GE)−/− islets", "type": "cell-based, mouse", "conditions": "for Insulin (secreted/total): G16.7+Ex4 (10 nM), individual repeats, listed as Ex4", "source_text": "For all statistical tests, *P < 0.05, **P < 0.01 and NS, non-significant. […] Mean ± s.e.m. are shown. Source data are provided as a Source Data file."}, "GLP1R [2]": {"tested_on": "GLP1R", "test": "Surface GLP1R expression in islets, GLP1R monoclonal antibody staining", "type": "cell-based, mouse", "conditions": "LUXendin555 250 nM, LUXendin645 100 nM, Ex9 250 nM", "source_text": "(§1) Mean ± s.e.m. are shown. **P < 0.01 for all statistical tests. Source data are provided as a Source Data file."}, "GLP1R [3]": {"biological_target": "T1, GLP1R (Homo sapiens, UniProt P43220)", "T1 construct": "expressed in transfected cells", "T1 sequence (P43220 24-463)": "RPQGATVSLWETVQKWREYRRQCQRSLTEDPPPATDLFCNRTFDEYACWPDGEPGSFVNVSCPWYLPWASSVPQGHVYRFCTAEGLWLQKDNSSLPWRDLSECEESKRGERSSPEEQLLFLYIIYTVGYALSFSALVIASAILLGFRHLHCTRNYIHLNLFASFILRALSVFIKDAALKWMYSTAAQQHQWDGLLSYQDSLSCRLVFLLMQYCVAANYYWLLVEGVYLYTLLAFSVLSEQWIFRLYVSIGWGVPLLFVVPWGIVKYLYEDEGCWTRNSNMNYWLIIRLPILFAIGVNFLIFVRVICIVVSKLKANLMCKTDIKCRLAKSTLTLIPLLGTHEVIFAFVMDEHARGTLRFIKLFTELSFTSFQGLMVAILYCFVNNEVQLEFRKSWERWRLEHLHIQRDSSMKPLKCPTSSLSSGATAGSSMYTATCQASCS", "test": "HTRF cAMP assay in HEK293-SNAP_GLP1R cells, agonist and antagonist modes, with or without PAM BETP", "type": "cell-based", "conditions": "n = 4 independent assays; for antagonist properties against GLP-1-induced cAMP production: applied at 1 µM, 30 min GLP-1 stimulation; for agonist or partial agonist activity (cAMP): ligand alone, 30 min", "experimental": "as §1\nPotency for cAMP generation and inhibition was tested in heterologous expression systems, comprising either stable CHO-K1-SNAP_GLP1R or HEK-SNAP_GLP1R cells, or transiently transfected YFP-AD293-SNAP_GLP1R cells. Briefly, cells were incubated with increasing concentrations of compound with and without allosteric modulator for 30 min, before harvesting, lysis and measurement of cAMP using either cAMP-Glo^TM (Promega) or HTRF (Cisbio) assays, according to the manufacturer’s instructions. All assays were performed in the presence of 100–500 µM IBMX to inhibit phosphodiesterase activity. EC50 values were calculated using log concentration–response curves fitted with a three-parameter or four-parameter equation. […]\npharmacology. HTRF cAMP assays in HEK-SNAP_GLP1R cells in agonist and antagonist modes, stimulated with ligand for 30 min. Note that LUXendins are GLP1R antagonists […]\nare shown. Source data are provided as a Source Data file.\n(1 picture or pasted object on this page, not shown here)"}, "GLP1R [4]": {"tested_on": "GLP1R", "test": "cAMP imaging in islets with FRET probe Epac2-camps", "type": "cell-based, mouse", "conditions": "Glp1r+/+ versus Glp1r(GE)−/− islets", "source_text": "Islets were transduced with adenovirus harboring the FRET sensor, Epac2-camps[56] (a kind gift from Prof. Dermot Cooper, University of Cambridge), before imaging using a Crest X-Light spinning disk system coupled to a Nikon Ti-E base and ×10/0.4 NA objective. Excitation was delivered at λ = 430–450 nm using a Lumencor Spectra X light engine. Emitted signals were detected at λ = 460–500 and λ = 520–550 nm for Cerulean and Citrine, respectively, using a Photometrics Delta Evolve EM-CCD. Imaging was performed in HEPES–bicarbonate buffer, containing (in mmol/L) 120 NaCl, 4.8 KCl, 24 NaHCO3, 0.5 Na2HPO4, 5 HEPES, 2.5 CaCl2, 1.2 MgCl2, and 3–17 D-glucose."}},
  "note": "Several values for one entry are separate records, joined by “and”; a condition that tells them apart may be missing. Equal entries are not always repeated.",
  "data": [
    {"substance": "Exendin4(1–39)", "values": [
      {"measurement": "Exendin4(1–39)-stimulated insulin secretion in Glp1r(GE)−/− islets", "setting": "GLP1R [1]; Ex4 10 nM", "result": "absence of Exendin4(1–39)-stimulated insulin secretion"},
      {"measurement": "Insulin (secreted/total)", "setting": "GLP1R [1]; KO islets", "result": "0.004511 and 0.004222 and 0.01074 and 0.01469 and 0.006361 and 0.004456 and 0.008025 and 0.00578 and 0.004129 and 0.001581 and 0.003759 and 0.00219 and 0.001686 and 0.003265 and 0.005154 and 0.02304 and 0.01055 and 0.00295"},
      {"measurement": "Insulin (secreted/total)", "setting": "GLP1R [1]; WT islets", "result": "0.004112 and 0.004627 and 0.005837 and 0.009517 and 0.006319 and 0.005338 and 0.01271 and 0.01517 and 0.02135 and 0.009713 and 0.003732 and 0.0026 and 0.01717 and 0.03657 and 0.02723 and 0.004332"}
    ]},
    {"substance": "Exendin4(9–39)", "values": [
      {"measurement": "GLP1R surface expression in islets", "setting": "GLP1R [2]", "result": "no differences"},
      {"measurement": "antagonist properties against GLP-1-induced cAMP production", "setting": "GLP1R [3]", "result": "similarly blocked"},
      {"measurement": "agonist or partial agonist activity (cAMP)", "setting": "GLP1R [3]", "result": "No agonist or partial agonist activity was detected"}
    ]},
    {"substance": "Liraglutide (HAEGTFTSDVSSYLEGQAAKEFIAWLVRGRG; chains of the INN, looked up) [incretin-mimetic]", "values": [
      {"measurement": "stimulation of cAMP rises in islets", "setting": "GLP1R [4]", "result": "only able to stimulate cAMP rises in islets from wild-type"}
    ]},
    {"substance": "S39C-Exendin4(9–39): S39C mutant of Exendin4(9–39) with a C-terminal thiol handle", "values": [
      {"measurement": "antagonist properties against GLP-1-induced cAMP production", "setting": "GLP1R [3]", "result": "similarly blocked"},
      {"measurement": "agonist or partial agonist activity (cAMP)", "setting": "GLP1R [3]", "result": "No agonist or partial agonist activity was detected"}
    ]}
  ]
}
